Assays:
[1] = Long term stability experiment of the HPPH crystal; type: physicochemical; conditions: for Total impurity (%) / Content (based on dry weight, %): Temp 25° C. ± 2° C., Humidity 60% ± 5%; for Content (based on dry weight, %): standard content 98.0% to 102.0%
Procedure: (§1) According to the Guidelines to the stability studies of active pharmaceutical ingredient and pharmaceutical preparation (Chinese Pharmacopoeia, 2010 Edition, the Second Part, Appendix XIX C) (Appendix 199 to 200), selecting the HPPH crystal sample prepared in Embodiment 1 (Lot No. S111101), mimicking pack to selling, placing it in an incubator at the temperature of 25° C.±2° C., and the relative humidity of 60%±5%, after 6 months, taking the sample out, and examining it with the key examination items for stability, then comparing the examination results with the results obtained in the 0 month.

[2] = Accelerated stability experiment of the HPPH crystal; type: physicochemical; conditions: for Total impurity (%) / Content (based on dry weight, %): Temp 40° C. ± 2° C., Humidity 75% ± 5%; for Content (based on dry weight, %): standard content 98.0% to 102.0%
Procedure: as §1, with “placing” for “placing it”, “40°” for “25°”, “75%±5%,” for “60%±5%,”

esophageal cancer = conditions: cited from earlier work

Row | Substance | Change of key stability examination items versus 0 month ([1]; 25° C. ± 2° C., relative humidity 60% ± 5%, after 6 months) | Total impurity (%) ([1]; 0 month) | Content (based on dry weight, %) ([1]; 0 month) [%] | Total impurity (%) ([1]; 6 months) | Content (based on dry weight, %) ([1]; 6 months) [%] | Content in the 6 month sample versus 0 month ([2]; 40° C. ± 2° C., relative humidity 75% ± 5%, after 6 months) | Total impurity (%) ([2]; 0 month) | Content (based on dry weight, %) ([2]; 0 month) [%] | Total impurity (%) ([2]; 6 months) | Content (based on dry weight, %) ([2]; 6 months) [%] | Photodynamic therapeutic efficacy (esophageal cancer; 5 esophageal cancer patients, very low dose) | Photosensitive side effect of skin (esophageal cancer; clinical observation, esophageal cancer patients)
1 | 2-((1′-n-hexyloxy)ethyl)-2-divinyl-pyropheophorbide-a [HPPH crystal] | no examination item has shown significant change | 0.25 | 99.9 | 0.26 | 99.8 | slightly lower, yet still within the acceptable range | 0.25 | 99.9 | 0.27 | 98.9 | – | –
2 | 2-((1′-n-hexyloxy)ethyl)-2-divinyl-pyropheophorbide-a [HPPH] | – | – | – | – | – | – | – | – | – | – | very good photodynamic therapeutic efficacy | no photosensitive side effect of skin has been observed
